This is an account of results in article PMC12107143, “MALT1 inhibitor MI-2 induces ferroptosis by direct targeting of GPX4” (Proceedings of the National Academy of Sciences of the …, 2025).

The target in this test is T1, MALT1 (Homo sapiens, UniProt Q9UDY8).
T1 construct: GST-MALT1 (aa 325–760)
T1 sequence (Q9UDY8 325-760): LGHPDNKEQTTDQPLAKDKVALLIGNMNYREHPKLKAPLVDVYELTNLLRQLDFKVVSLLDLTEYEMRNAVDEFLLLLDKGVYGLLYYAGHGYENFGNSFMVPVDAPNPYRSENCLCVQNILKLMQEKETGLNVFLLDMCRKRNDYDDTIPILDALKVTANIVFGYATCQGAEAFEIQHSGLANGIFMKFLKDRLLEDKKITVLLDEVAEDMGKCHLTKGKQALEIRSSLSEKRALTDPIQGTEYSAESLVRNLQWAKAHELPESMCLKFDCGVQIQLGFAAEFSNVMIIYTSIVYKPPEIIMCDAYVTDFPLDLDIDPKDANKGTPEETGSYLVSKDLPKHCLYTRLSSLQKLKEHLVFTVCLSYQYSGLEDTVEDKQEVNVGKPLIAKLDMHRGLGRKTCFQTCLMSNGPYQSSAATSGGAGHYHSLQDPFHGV
The test is described as follows: recombinant GST-MALT1 protease assay with fluorescence substrate Ac-LRSR-AMC. Type of test: biochemical.

SMILES strings stand for the structures.

Regarding `COCCOc1nc(-c2ccc(Cl)c(Cl)c2)n(-c2ccc(NC(=O)CCl)cc2)n1` [MI-2], the half-inhibitory concentration (IC50) worked out at 2100 nM.
